Test results published in patent EP0808325B1, “[…] […] SERIES FOR […] GABA RECEPTOR” (priority 1994, dated 1996).

Legend:
mice [1] = assay: loss-of-righting reflex (anesthetic activity); assay type: in vivo; parameters: unit not given here; details: iv
Description: The compounds of and used in the invention can also be used for anesthetic indications at high doses. However, the preferred route of administration to induce anesthesia is intravenous (i.v.) administration. In animals, a drug's anesthetic properties is measured by the drug's ability to produce a loss-of-righting reflex. The loss-of-righting reflex is defined as the inability of an animal to right itself within 30 seconds when placed on its back. Mice were administered drug i.v. in the lateral tail vein. Following administration, mice were placed on their backs and observed for loss-of-righting reflex.

rats [2] = assay: Vogel test; assay type: in vivo; details: i.c.v., g-CD
Text: The Vogel test is based on the development of a conflict between a highly motivated behavior and an aversion. For this test, the strong motivation is thirst. The animal is water deprived for 12-16 hrs to produce the motivation to drink. During the training period the animals are exposed to the testing environment so they become accustomed to the drinking spout and minimize the fear of a novel environment. Following training, the animals are allowed access to water for 2 hrs. During this time, the animals will drink and eat their normal amount of water and food, compensating for the deprivation time. However, this schedule still produces a strong motivation to drink during the testing period.
Having been deprived of water for twelve to sixteen hours, an animal is placed in a test cage where it is allowed to drink freely for five minutes. This period is used to habituate the animal to the environment and the drinking spout Following the training period, animals have access to water and food in their home cage for 2 hrs. Food is available at all times. Twenty-four hours later, drug is administered to the animal intracerebroventricularly.
After an indicated delay started from the time of injection the animal is again placed in the test cage for ten minutes. A computer counts each time the animal licks, and after every twentieth lick administers a mild electric stimulus across the tongue and/or feet. The electrical stimulus consists of a 0.6 mA current with a duration of 100 msec. This procedure produces a state of conflict for the animal that is reduced by the administration of clinically used anxiolytic agents (i.e., Valium). For dose-response curves, separate groups of animals are injected with increasing doses of test drug and are tested at a predetermined time.

GR complex = assay: modulation of [35S]TBPS binding in rat cerebral cortex P2 homogenate; parameters: species or system Sprague-Dawley rats; IMAX: unit not given here; details: for IC50: concentration of compounds to inhibit 50% of control [35S]TBPS binding, 2 nM [35S]TBPS, 25°C, 90 minutes, no unit printed; for IMAX: maximum inhibition of [35S]TBPS binding, I* = Inactive
Procedure, shortened: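 Rat (male Sprague-Dawley) cortical P2 homogenate, 0.5 mg protein, in 50 mM Na/K phosphate pH 7.4, 200 mM NaCl, incubated 90 min at 25° C with 2 nM [35S]TBPS plus GABA and (+)bicuculline, compounds added in DMSO. Filter-bound radioactivity counted; nonspecific binding defined with […].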

mice [3] = assay: elevated plus-maze; assay type: in vivo, N.I.H. Swiss-Webster mice; details: IP, 50% hpbcd
Text: The theoretical basis for the elevated plus-maze test is similar to that of the light/dark transition test. As described by Pellow et al., J. Neurosci. Meth 14:149-167 (1985), the elevated plus-maze apparatus is designed to utilize the mice's natural aversion to open spaces. The apparatus consists of two open-arms and two enclosed-arms. The elevated plus-maze test allows for two measures of anxiety, the number of entries into the open-arms and the time spent on the open-arms, both expressed as a percentage of the total number of entries and time spent in/on both the open-arms and enclosed-arms.
Male N.I.H. Swiss-Webster mice (Harlan, Indianapolis, IN) weighing 15-20 g were housed four per cage in polyethylene cages with sawdust bedding. The colony room was environmentally controlled (22°C) with a 12 hr light/dark cycle (0600-1800 hr). Food and water were available ad libitum, except during testing. The experiments were run from 0700-1500 hr and groups were counterbalanced for time of day effects. Mice were only administered drug or vehicle once.
The method used was previously described (Lister, Psychopharmacol. 92:180-185 (1987)). The apparatus included two open arms perpendicular to two enclosed arms elevated 50 cm from the floor. Each arm was 50 cm long and the walls of the enclosed arms were 40 cm tall. The maze was made completely of black plexiglass. Incandescent 200 W light bulbs were above each of the open arms to produce a strong contrast between the open arms and the enclosed arms.
Ten minutes after an injection, the N.I.H. Swiss-Webster mice were placed in the center of the plus-maze facing an open arm. During the 5 min test period, the number of entries onto the open arms and the enclosed arms, and the time spent in the open arms and enclosed arms were measured. All four paws had to be within an arm for the dependent variable to be measured. Therefore, the time spent in the center of the maze is not counted, so the total time spent in the open arms and the enclosed arms may not equal 5 min. […]

[4] = system: metrazol induced convulsions; assay: animal or person; assay type: in vivo, mice; details: IP, 10 mg/kg
rats [5] = assay: Geller-Seifter conflict test; assay type: in vivo, Sprague-Dawley rats; details: 50% hpbcd
Text: This animal model of human anxiety utilizes a conditioned state of conflict in rats to ascertain the anxiolytic properties of drugs. Rats are conditioned to bar press for positive reinforcement under two schedules of behavior (Geller and Seifter, Psychopharmacologia 1:482-492 (1960)). The first includes bar pressing under a […] schedule without punishment. The second component is a fixed ratio schedule with each bar press resulting in a positive reinforcement and a punishment. The punished component produces a state of conflict within the animal. […] An anxiolytic response would increase the punished responding without affecting the unpunished responding.
Male albino Sprague-Dawley rats (Charles River Labs, Wilmington, MA) weighing 250-300 g were used for conflict experiments and were kept on a restricted diet of Purina Lab Chow food pellets with water available at all times to maintain body weight at 85% of their free-feeding young adult levels. Rats were housed individually under a 12-hour light-dark cycle with lights on from 0700-1900.
The anti-anxiety (punishment-lessening) and response depressant effects of […] and […] were measured in rats by the conflict test of Geller and Seifter (1960). In this 63-min test, hungry rats perform a lever-press response to obtain a sweetened milk reward. The reinforcement schedule consists of punishment and nonpunishment components, alternating approximately every 15 min. Rats were trained in test chambers (Coulbourn instruments) with a lever mounted in one wall, a small dipper that delivered the 0.1-mL milk reward (1 part Eagle condensed : milk 2 parts water), and a metal grid floor through which the foot-shock punishment was administered. A DEC PDP 11/73 minicomputer running SKED (State Systems) was used for programming and recording.
Rates initially learned to respond on a continuous reinforcement schedule and progressed rapidly to 30-sec, 1-min, and 2-min variable interval (VI) schedules. On the continuous reinforcement schedule, rats received milk reward following every lever press; on the VI schedules, milk rewards were available at infrequent and variable intervals, eventually at an average of once every 2 min. Four 3-min "conflict" periods were then introduced on the unpunished VI baseline; the first started after 3 min of VI performance and the others were alternated between 12-min periods of VI responding. During conflict periods, which were signalled by the presentation of a light and a tone, the continuous reinforcement schedule was again in force and each lever press delivered both a milk reward and a brief ([…]) foot-shock punishment. Shock intensity was 0.2 mA initially, and.was increased daily in increments of 0.02 mA in order to gradually suppress lever pressing to 5 responses or less per conflict period. This training took 4-6 weeks, after which stable low rates of response were observed during conflict periods and stable high rates in the nonpunishment periods. Drug-induced increases in the rate of punished responses were taken as an index of antianxiety activity, while decreases in the rate of unpunished responses were taken as an index of response depression or sedation.

[6] = 50% hpbcd, 10 minutes prior to metrazol (85 mg/kg)

## CCO[C@H]1C[C@@]2(C)[C@@H](CC[C@@H]3[C@@H]2CC[C@]2(C)[C@@H](C(C)=O)CC[C@@H]32)C[C@@H]1O [2β-Ethoxy-3α-hydroxy-5α-pregnan-20-one]
Mice [1]; 20% cremophor, 5 mg/kg
  Loss-of-Righting Reflex: 100

## CC(O)C1CCC2C3CCC4CC(O)C(F)CC4(C)C3CCC12C (stereo not drawn) [2β-Fluoro-3α,20α-dihydroxy-5α-pregnane]
Rats [2]; 20 ug
  Vogel (% of control): 264.9 % of control

## CC(=O)[C@H]1CC[C@H]2[C@@H]3CC[C@H]4C[C@H](O)[C@@H](F)C[C@]4(C)[C@H]3CC[C@]12C [2β-Fluoro-3α-hydroxy-5α-pregnan-20-one]
Mice [1]; micronizing solution, 5 mg/kg
  Loss-of-Righting Reflex: 100

## CC(C)(O)[C@H]1CC[C@H]2[C@@H]3CC[C@H]4C[C@H](O)CC[C@]4(C)[C@H]3CC[C@]12C [3α,20-dihydroxy-20-methyl-5α-pregnane]
Rats [2]; 20 ug
  Vogel (% of control): 179.0 % of control
GR complex
  IC50: 176 nM
  IMAX: 40

## CC(C)OC1CC2(C)C(CCC3C2CCC2(C)C(C(C)O)CCC32)CC1O (stereo not drawn) [3α,20α-Dihydroxy-2β-isopropoxy-5α-pregnane]
Rats [2]; 10 ug
  Vogel (% of control): 169.0 % of control

## C[C@H](O)[C@H]1CC[C@H]2[C@@H]3CC[C@@H]4C[C@H](O)CC[C@]4(C)[C@H]3CC[C@]12C [3α,20α-Dihydroxy-5β-pregnane]
Rats [2]; 10 ug
  Vogel (% of control): 283.3 % of control

## CCC[C@H](O)[C@H]1CC[C@H]2[C@@H]3CC[C@H]4C[C@H](O)CC[C@]4(C)[C@H]3CC[C@]12C [3α,20α-dihydroxy-21-ethyl-5α-pregnane]
Rats [2]; 20 ug
  Vogel (% of control): 225.8 % of control
GR complex
  IC50: 27 nM
  IMAX: 13

## C[C@@H](O)[C@H]1CC[C@H]2[C@@H]3CC[C@@H]4C[C@H](O)CC[C@]4(C)[C@H]3CC[C@]12C [3α,20β-Dihydroxy-5β-pregnane]
Rats [2]; 20 ug
  Vogel (% of control): 267.3 % of control

## C#C[C@@]1(O)CC[C@@]2(C)[C@H](CC[C@@H]3[C@@H]2CC[C@]2(C)[C@@H](C(=O)CO)CC[C@@H]32)C1 [3α,21-Dihydroxy-3β-ethynyl-5β-pregnan-20-one]
Mice [3]; 10 mg/kg
  % Control: 162%
Mice [1]; 20% cremophor, 10 mg/kg
  Loss-of-Righting Reflex: 100
GR complex
  IC50: 216 nM
  IMAX: 104
[4]; [6]
  % Protected: 18.8%

## CC(=O)C1=CC[C@H]2[C@@H]3CC[C@H]4C[C@](C)(O)CC[C@]4(C)[C@H]3CC[C@]12C [3α-Hydroxy-3β-methyl-5α-pregn-16-en-20-one]
Mice [1]; micronizing solution, 50 mg/kg
  Loss-of-Righting Reflex: 100

## COCCC(=O)[C@H]1CC[C@H]2[C@@H]3CC[C@H]4C[C@](C)(O)CC[C@]4(C)[C@H]3CC[C@]12C [3α-Hydroxy-3β-methyl-21-methoxymethyl-5α-pregnan-20-one]
Mice [1]; micronizing solution, 20 mg/kg
  Loss-of-Righting Reflex: 100

## CC(=O)[C@H]1CC[C@H]2[C@@H]3CC[C@H]4C[C@H](O)CC[C@]4(C)C3=CC[C@]12C [3α-Hydroxy-5α-pregn-9-en-20-one]
Mice [1]; micronizing solution, 10 mg/kg
  Loss-of-Righting Reflex: 100

## COC=C1CCC2C3CCC4CC(O)CCC4C3CCC12C (stereo not drawn) [3α-Hydroxy-17(20)(Z)-methoxytnethylene-19-nor-5α-androstane]
Mice [1]; micronizing solution, 5 mg/kg
  Loss-of-Righting Reflex: 75

## CC(=O)[C@H]1CC[C@H]2[C@@H]3CC[C@@H]4C[C@](C)(O)CC[C@]4(C)[C@H]3CC[C@]12C [3α-hydroxy-3β-methyl-5β-pregnan-20-one]
Mice [1]; micronizing solution, 2.5 mg/kg
  Loss-of-Righting Reflex: 100
GR complex
  IC50: 37 nM
  IMAX: 98
[4]; micro soln.
  % Protected: 70%

## CC(=O)[C@H]1CC[C@H]2[C@@H]3CC[C@@H]4C[C@@](O)(C#CCl)CC[C@]4(C)[C@H]3CC[C@]12C [3β-(Chloroethynyl)-3α-hydroxy-5β-prognan-20-one]
Mice [1]; micronizing solution, 20 mg/kg
  Loss-of-Righting Reflex: 100

## C=C[C@@]1(O)CC[C@@]2(C)[C@@H](CC[C@@H]3[C@@H]2CC[C@]2(C)[C@@H](C(C)=O)CC[C@@H]32)C1 [3β-ethenyl-3α-hydroxy-5α-pregnan-20-one, 3β-Ethenyl-3α-hydroxy-5α-pregnan-20-one]
Mice [3]; 5 mg/kg
  % Control: 154.3%
Rats [5]; po, 12 mg/kg
  Geller/Seifter (% of control): 1092.3 % of control
GR complex
  IC50: 113 nM
  IMAX: 88
[4]; [6]
  % Protected: 100%

## C#C[C@@]1(O)CC[C@@]2(C)[C@H](CC[C@@H]3[C@@H]2CC[C@]2(C)[C@@H](C(C)=O)CC[C@@H]32)C1 [3β-ethynyl-3α-hydroxy-5β-pregnan-20-one, 3β-Ethynyl-3α-hydroxy-5β-pregnan-20-one]
Mice [3]; 1 mg/kg
  % Control: 186.6%
Mice [1]; 10% hpbcd, 30 mg/kg
  Loss-of-Righting Reflex: 100
Rats [5]; sc, 2 mg/kg
  Geller/Seifter (% of control): 751.1 % of control
GR complex
  IC50: 39 nM
  IMAX: 101
[4]; [6]
  % Protected: 100%
